Measured values from paper PMC8795197, “Safety and activity of WX-0593 (Iruplinalkib) in patients with ALK- or ROS1-rearranged advanced non-small cell lung cancer: a phase 1 dose-escalation and dose-expansion trial” (Signal Transduction and Targeted Therapy, 2022).
“And” between values parts separate entries of the source, which are not always exact repeats. Identical values can stand only once. “Also recorded” adds a separate entry of the source. Like-named read-outs stand apart in the source and are kept apart here.

What was measured:
Karpas299 (NPM-ALK) = experiment: Cell proliferation inhibition assay; assay type: cell-based
Ba/F3 ALK-I1171N = experiment: Growth of transfected Ba/F3 cells (CellTiter-Glo, 3 days); assay type: cell-based; conditions: Mus musculus, BaF3; ALK-I1171N; read-out: IC50
Experimental: (§1) Harvest cells during the logarithmic growth period and count cells using blood counting chamber. Adjust cell concentration with culture medium. Add 90µl cell suspensions to two 96-well plates to the final cell density as described before. Incubate the plate overnight in humidified incubator at 37℃ with 5% CO2. Dispense 10µl drug solution (10×) to each well (triplicate for each concentration), and the DMSO final concentration in culture medium is 0.1% [v/v]. Culture the plates for 3 days. On Day 3, Read luminescent using Multi Label Reader. The software of GraphPad Prism was used to calculate IC50. The graphical curves were fitted using a nonlinear regression model with a sigmoidal dose response.

Ba/F3 ALK-I1171T = experiment: as above; assay type: cell-based; conditions: Mus musculus, BaF3; ALK-I1171T; read-out: IC50
Experimental: as §1

Ba/F3 ALK-G1269A = experiment: as above; assay type: cell-based; conditions: Mus musculus, BaF3; ALK-G1269A; read-out: IC50
Experimental: as §1

Ba/F3 ALK-L1152R = experiment: as above; assay type: cell-based; conditions: Mus musculus, BaF3; ALK-L1152R; read-out: IC50
Experimental: as §1

LU-01-0319R NSCLC PDX = experiment: PDX model resistant to crizotinib; assay type: in vivo
[1] = system: advanced NSCLC patients with ALK or ROS1 rearrangement; experiment: Phase 1 trial: safety (adverse events, DLT, MTD; NCI CTCAE 4.03); assay type: in vivo
Experimental: This FIH, single arm, multicenter, phase 1 study was conducted in advanced NSCLC patients with ALK or ROS1 rearrangement, composed of the dose-escalation and dose-expansion phases. The dose-escalation and dose-expansion phases were conducted at 4 and 38 centers in mainland China, respectively (Supplementary Table S1), and were done in compliance with the Declaration of Helsinki and International Council for Harmonisation guidelines for Good Clinical Practice. The study protocol and amendments were approved by the independent ethics committee at every participating site. Written informed consent was provided by all patients before being screened for enrolment.
ALK and ROS1 rearrangements were established by immunohistochemistry, reverse transcription-polymerase chain reaction (PCR), amplification refractory mutation system-PCR, fluorescence in situ hybridization, or next-generation sequencing. Patients must have at least one measurable lesion as defined by Response Evaluation Criteria in Solid Tumors (RECIST) version 1.1. Other key eligibility criteria included an age of 18–70 years, an Eastern Cooperative Oncology Group performance status of 0 or 1, a life expectancy of at least 12 weeks, and adequate organ function, including adequate function of bone marrow (absolute neutrophil count ≥1.5 × 10^9/L, platelets ≥100 × 10^9/L, hemoglobin ≥90 g/L) and liver function (total bilirubin ≤1.5× upper limit of normal [ULN], ALT and AST ≤2.5× ULN [≤5.0× ULN for liver metastasis patients]).
In the dose-escalation phase, a standard 3 + 3 design was used to determine the MTD.[29]
Three patients were assigned to each dose level.
Patients continued treatment until documented disease progression, unacceptable toxicity, withdrawal of consent, the start of a new anticancer treatment, death, loss of follow-up, or end of the study (whichever occurred first). Patients were permitted to continue treatment after progression if they were still experiencing clinical benefit, at the discretion of the investigator.
For grade ≥3 AEs (also including grade ≥2 cardiac dysfunction and renal dysfunction, etc.), dose interruption could occur.
Patients performed imaging evaluation at baseline, with computed tomography or magnetic resonance imaging of the chest, abdomen, pelvis, and brain. […] In the dose-expansion phase, tumor response was assessed every 6 weeks until 48 weeks and every 12 weeks thereafter until documented disease progression. If responses (CR or PR) were observed, repeat assessments were required to confirm the responses 4 weeks after the initial evaluation. Tumor responses were assessed by local investigators according to RECIST 1.1.
Safety parameters included TEAEs, SAEs, and TRAEs.

Eta = Eta (Homo sapiens, UniProt P25101); experiment: GPCR antagonist screening assay; assay type: cell-based
[2] = TEAE, Grade 1–2, total (n = 152)
[3] = TEAE, ≥Grade 3, total (n = 152)
[4] = TEAE, ≥Grade 3, dose: 30, 60, 90, 120, 180, 240, 300 mg
[5] = TRAE, ≥grade 3, dose: 30, 60, 90, 120, 180, 240, 300 mg

Eta, sequence (P25101 21-427): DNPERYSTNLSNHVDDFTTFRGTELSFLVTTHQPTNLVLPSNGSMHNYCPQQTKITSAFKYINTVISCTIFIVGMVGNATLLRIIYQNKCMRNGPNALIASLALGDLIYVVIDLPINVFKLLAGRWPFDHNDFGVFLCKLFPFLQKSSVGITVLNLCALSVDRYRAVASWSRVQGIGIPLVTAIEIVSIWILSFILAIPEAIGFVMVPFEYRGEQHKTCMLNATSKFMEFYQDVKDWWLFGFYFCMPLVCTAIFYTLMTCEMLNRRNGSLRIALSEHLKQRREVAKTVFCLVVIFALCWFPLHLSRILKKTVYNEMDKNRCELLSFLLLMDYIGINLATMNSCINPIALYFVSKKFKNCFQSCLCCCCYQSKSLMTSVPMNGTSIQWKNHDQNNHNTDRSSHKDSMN

## COc1cc(N2CCC3(CCN(C)CC3)CC2)ccc1Nc1ncc(Cl)c(Nc2ccccc2P(C)(C)=O)n1 [WX-0593]
Karpas299 (NPM-ALK)
  growth inhibition: significantly inhibits the growth
Ba/F3 ALK-I1171N
  IC50: 17.9 nM
Ba/F3 ALK-I1171T
  IC50: 11.3 nM
Ba/F3 ALK-G1269A
  IC50: 36 nM
Ba/F3 ALK-L1152R
  IC50: 4.6 nM
LU-01-0319R NSCLC PDX; WX-0593 2.5, 5, 10 mg/kg, ceritinib 10/20 mg/kg, brigatinib 10 mg/kg
  anti-tumor effect: significant anti-tumor effects
LU-01-0319R NSCLC PDX; all treatment arms
  body weight: no significant decrease in weight
[1]
  Dizziness, patients n (%): 0
[1]; [2]
  ALT elevated, patients n (%): 39 (26%)
  AST elevated, patients n (%): 41 (27%)
  CPK elevated, patients n (%): 31 (20%)
  Dizziness, patients n (%): 16 (11%)
  Headache, patients n (%): 14 (9%)
  Hypertension, patients n (%): 24 (16%)
  Hypertriglyceridemia, patients n (%): 32 (21%)
  Upper respiratory infection, patients n (%): 16 (11%)
  diarrhea, patients n (%): 21 (14%)
  hypercholesterolemia, patients n (%): 42 (28%)
  hyperlipidemia, patients n (%): 21 (14%)
  nausea, patients n (%): 48 (32%)
  rash, patients n (%): 19 (13%)
  γ-GGT elevated, patients n (%): 12 (8%)
[1]; TEAE, all grade, total (n = 152)
  Headache, patients n (%): 14 (9%)
[1]; [3]
  ALT elevated, patients n (%): 6 (4%)
  AST elevated, patients n (%): 6 (4%)
  CPK elevated, patients n (%): 0
  Headache, patients n (%): 0
  Hypertension, patients n (%): 9 (6%)
  Hypertriglyceridemia, patients n (%): 5 (3%)
  Upper respiratory infection, patients n (%): 1 (1%)
  diarrhea, patients n (%): 1 (1%)
  hypercholesterolemia, patients n (%): 5 (3%)
  hyperlipidemia, patients n (%): 1 (1%)
  nausea, patients n (%): 0
  rash, patients n (%): 1 (1%)
  vomiting, patients n (%): 0
  γ-GGT elevated, patients n (%): 5 (3%)
[1]; [4]
  CPK elevated, patients n (%): 0
  Dizziness, patients n (%): 0
  Headache, patients n (%): 0
  nausea, patients n (%): 0
  vomiting, patients n (%): 0
[1]; TRAE, grade 1-2, total (n=152)
  ALT elevated, patients n (%): 38(25%)
  AST elevated, patients n (%): 41(27%)
  CPK elevated, patients n (%): 25(16%)
  Hypertension, patients n (%): 18(12%)
  Hypertriglyceridemia, patients n (%): 28(18%)
  diarrhea, patients n (%): 21(14%)
  hypercholesterolemia, patients n (%): 39(26%)
  hyperlipidemia, patients n (%): 15(10%)
  nausea, patients n (%): 43(28%)
  rash, patients n (%): 15(10%)
  vomiting, patients n (%): 37(24%)
  γ-GGT elevated, patients n (%): 10(7%)
[1]; TRAE, ≥grade 3, total (n=152)
  CPK elevated, patients n (%): 0
  diarrhea, patients n (%): 1(1%)
  hypercholesterolemia, patients n (%): 1(1%)
  hyperlipidemia, patients n (%): 0
  nausea, patients n (%): 0
  rash, patients n (%): 1(1%)
  vomiting, patients n (%): 0
[1]; [5]
  CPK elevated, patients n (%): 0
  hyperlipidemia, patients n (%): 0
  nausea, patients n (%): 0
  vomiting, patients n (%): 0
[1]; dose-escalation 30–300 mg
  maximum tolerated dose (MTD): could not be identified; also recorded: not reached
[1]; dose-escalation, 300 mg, in 1 of 3 patients: grade 3 QT interval prolonged, grade 2 chronic heart failure
  dose-limiting toxicities (DLTs): Two
[1]; total (n=152)
  AE led to dose interruption, patients n (%): 30(20%)
  AE led to dose interruption, treatment-related, patients n (%): 30 (20%) and 27(18%)
  AE led to dose reduction, treatment-related, patients n (%): 4 (3%)
  AE led to treatment termination, patients n (%): 11(7%)
  Adverse events, total, patients n (%): 148 (97%)
  Death during treatment, not related with disease progression, patients n (%): 6(4%)
  Death during treatment, related with disease progression, patients n (%): 1(1%)
  Discontinuation due to adverse event, patients n (%): 11(7%)
  Discontinuation due to adverse event, treatment-related, patients n (%): 8(5%)
  Serious adverse event, patients n (%): 25 (16%)
  ≥grade 3 adverse event, patients n (%): 53 (35%)
Eta
  IC50: 500 nM
